Earlier results, collected in US11179353B1, “Composition and method for prevention and treatment of radiation dermatitis” (Rythera Therapeutics, Inc., priority 2020, dated 2021).

Experiments:
irradiated breast tissue = conditions: topical
radiation skin damage = conditions: retrospective analysis

For `O=C1O[C@H]([C@@H](O)CO)C(O)=C1O` [Vitamin C], the “improvement in the results of irradiated breast tissue” value (irradiated breast tissue) is listed as “without improvement”.
For `NCCCNCCSP(=O)(O)O` [amifostine], the dermato-cytoprotective effects (radiation skin damage) is given as “significant dermato-cytoprotective effects”.
